Laboratory results: patent EP0055716B1, “AMPLIFIED ANTIBIOTIC AND ANTITUMOR AGENTS” (priority 1980, dated 1982)

Tests used:
[1] = system: Walker 256 carcinoma Sarcoma; experiment: Survival of rats with Walker 256 ascites tumour, amide with or without amplifier; assay type: in vivo, Sprague Dawley rats; conditions: for T/C (1): control saline vehicle only
Procedure: This was given two 2-minute treatments with Boyle's fluid (9 vols. 0.83% NH4CI, 1 vol. Tris buffer, pH7.2). The cell suspension was counted on a haemocytometer using Turk's fluid and then diluted with Eagle's medium to 10^7 live cells per ml, and then 0.1 ml was injected intraperitoneally. Bacto-fluid Thiolglycollate Medium was used to test for contamination. Solutions of the phleomycins, bleomycins or tallysomycins were made up in phosphate-buffered saline at pH7.2 in daily doses at the commencement of each 5 day injection period and were kept frozen until the commencement of each day's injections. The injections were given at 9 a.m. and 4 p.m. […] Test groups usually comprised 7 or 8 animals.

Ehrlich's Ascites Tumor = experiment: Survival of mice with Ehrlich's ascites tumor, amide with or without amplifier; assay type: in vivo; conditions: for T/C (1): control saline vehicle only
Mouse Sarcoma 180 = experiment: Survival of mice with Sarcoma 180, amide with or without amplifier; assay type: in vivo; conditions: i.p.; for T/C (1): control saline vehicle only
[2] = Exp 1A, amplifier alone 10.61 uKD
[3] = Exp 1A, amplifier alone 106.1 uKD
[4] = Exp 1B, amplifier alone 10.61 uKD
[5] = Exp 1B, amplifier alone 1061 uKD
[6] = Exp 1D, amplifier alone 10.61 uKD in minipumps
[7] = Exp 1D, amplifier alone 106.1 uKD in minipumps
[8] = Exp 2A, i.p., amplifier alone 10.61 uKD
[9] = Exp 2A, i.p., amplifier alone 106.1 uKD
[10] = Exp 2B, amplifier alone 10.61 uKD in drinking water
[11] = Exp 2B, amplifier alone 106.1 uKD in drinking water
[12] = Exp 2B, amplifier alone 1061 uKD in drinking water
[13] = Exp 3A, amplifier alone 1942 uKD
[14] = Exp 1C, amplifier alone 675 uKD
[15] = Exp 1E, amplifier alone 675 uKD
[16] = Exp 2C, i.p., amplifier alone 675 uKD
[17] = Exp 2C, i.p., amplifier alone 2025 uKD
[18] = Exp 3B, amplifier alone 675 uKD
[19] = Exp 3C, amplifier alone 675 uKD

In the case of `Cn1c(=O)c2c(ncn2C)n(C)c1=O` [Caffeine, 1, 3, 7 trimethyl xanthene], the M.S.T. [1, 2] is reported as 8.0 days, the “T/C (1)” value [1, 2] is reported as 89 and the M.S.T. [1, 3] is reported as 8.0 days. For the same compound, the “T/C (1)” value [1, 3] was 89, the M.S.T. [1, 4] was 7.0 days and the “T/C (1)” value [1, 4] was 93. The M.S.T. [1, 5] was 8.0 days, the “T/C (1)” value [1, 5] was 107 and the M.S.T. [1, 6] was 10.0 days. The “T/C (1)” value [1, 6] was 95, the M.S.T. [1, 7] was 10.0 days and the “T/C (1)” value [1, 7] was 95. For the same compound, the M.S.T. (Ehrlich's Ascites Tumor; [8]) was 21.0 days, the “T/C (1)” value (Ehrlich's Ascites Tumor; [8]) was 93 and the M.S.T. (Ehrlich's Ascites Tumor; [9]) was 21.0 days. For the same compound, the “T/C (1)” value (Ehrlich's Ascites Tumor; [9]) was 93, the M.S.T. (Ehrlich's Ascites Tumor; [10]) was 22.0 days and the “T/C (1)” value (Ehrlich's Ascites Tumor; [10]) was 119. The M.S.T. (Ehrlich's Ascites Tumor; [11]) was 21.0 days, the “T/C (1)” value (Ehrlich's Ascites Tumor; [11]) was 113 and the M.S.T. (Ehrlich's Ascites Tumor; [12]) was 20.0 days. The “T/C (1)” value (Ehrlich's Ascites Tumor; [12]) was 108, the M.S.T. (Mouse Sarcoma 180; [13]) was 17.0 days and the “T/C (1)” value (Mouse Sarcoma 180; [13]) was 106.

In the case of Dimethylthiocyanine, the M.S.T. [1, 14] is reported as 9.0 days, the “T/C (1)” value [1, 14] is reported as 112 and the M.S.T. [1, 15] is reported as 6.0 days. The “T/C (1)” value [1, 15] was 100, the M.S.T. (Ehrlich's Ascites Tumor; [16]) was 20.0 days and the “T/C (1)” value (Ehrlich's Ascites Tumor; [16]) was 111. For the same compound, the M.S.T. (Ehrlich's Ascites Tumor; [17]) was 20.0 days, the “T/C (1)” value (Ehrlich's Ascites Tumor; [17]) was 111 and the M.S.T. (Mouse Sarcoma 180; [18]) was 17.0 days. For the same compound, the “T/C (1)” value (Mouse Sarcoma 180; [18]) was 100, the M.S.T. (Mouse Sarcoma 180; [19]) was 17.0 days and the “T/C (1)” value (Mouse Sarcoma 180; [19]) was 100.
